Patent publication US20240181093A1 (ADENOBIO N.V, priority 2012, published 2024)
Values joined by “and” are separate entries in the source; they are usually repeats but may differ in a detail not shown here. Equal values may be shown once. Marks after values point to notes of the source that are not given here.

What was measured:
[1] = system: Left anterior descending coronary artery (LAD); assay: Transthoracic doppler echocardiography (TTDE) flow velocity measurements at rest and under pharmacologic stress; assay type: in vivo, human; settings: for Average Optimal Effect Duration: combined with adenosine bolus
Source text: The value of absolute coronary blood flow (CBF) may be substituted by the value of CBF velocity (peak and mean velocities). […] Given that blood flow=velocity flow×cross section, if cross section is constant, velocity variations reflect blood flow variations.
TTDE is a non invasive approach conducted under the same conditions as for thallium or technetium scintigraphy (intravenous injection) and another way to study Coronary Flow Reserve (CFR).

coronary hyperaemia = settings: cited from earlier work
patients = settings: cited from earlier work
[2] = bolus independently of the patient's weight
[3] = Table 1: same coronary patient, 5 studies, second data of cell, adenosine 140 μg/kg/min 2 minute infusion, combination 30 second IV bolus

OCCN(CCO)c1nc(N2CCCCC2)c2nc(N(CCO)CCO)nc(N3CCCCC3)c2n1 [Dipyridamole, dipyridamole]
Average Optimal Effect Duration ([1]; Dipyridamole dose 9 mg, regardless of the dose of adenosine): 30 to 40 s | Average Optimal Effect Duration ([1]; Dipyridamole dose 10 mg, regardless of the dose of adenosine): 40 to 50 s | Average Optimal Effect Duration ([1]; Dipyridamole dose 12 mg, regardless of the dose of adenosine): 40 to 90 s | Average Optimal Effect Duration ([1]; Dipyridamole dose 14 mg, prolongs side effects when they occur): 60-100** sec | coronary effect and side effect ([1]; alone as a 12 mg or 14 mg bolus): no coronary effect and no side effect | coronary effect or symptom ([1]; injected as a bolus alone at the dose of 12 mg (n=5 patients)): does not induce any significant coronary effect or symptom | duration of peak of activity (coronary hyperaemia; in vivo): 20 to 30 min

CNC(=O)c1cnn(-c2nc(N)c3ncn([C@@H]4O[C@H](CO)[C@@H](O)[C@H]4O)c3n2)c1 [regadenoson]
side effects as compared to the reference drug Adenoscan (adenosine) (patients; in vivo): increase in dyspnea, headache and gastrointestinal disorders | efficacy and tolerance at 500 μg (coronary hyperaemia; [2]): same efficacy as 400 μg but tolerance is worst | efficacy threshold dose in many but not all patients (coronary hyperaemia; [2]): 300 µg | dose efficient in all patients (coronary hyperaemia; bolus independently of the patient's weight, marketed dose): 400 µg | time after which coronary hyperaemia is induced (coronary hyperaemia; in vivo): 30 s

Nc1ncnc2c1ncn2[C@@H]1O[C@H](CO)[C@@H](O)[C@H]1O [Adenosine, adenosine]
DOE = Duration of optimal effect ([1]; Table 1: same coronary patient): 60 to 90 s | RBL = Return to base line ([1]; Table 1: same coronary patient): 40 to 50 s | TTP = Time to peak ([1]; Table 1: same coronary patient): 40 to 50 s | MV = Mean Velocity, under stress conditions [1, 3]: 78 cm/s and 80 cm/s and 82 cm/s and 75 cm/s and 74 cm/s | PV = Peak Velocity, under stress conditions [1, 3]: 108 cm/sec and 96 cm/sec and 98 cm/sec and 105 cm/sec | CR (based on MV) ([1]; Table 2: three different coronary patients, one line per patient, listed as St. Adenosine): 2.12 and 2.36 and 2.88 | MV (mean velocity), under stress conditions ([1]; Table 2: three different coronary patients, one line per patient, second data of cell, St. adenosine 140 μg/kg/min infusion about 2 minutes, combination IV 30 second bolus): 50 cm/s and 33 cm/s and 75 cm/s | adverse reaction: flushing (patients; adenosine infusion, most frequently reported): 44% | Other side effects, incidence (patients; adenosine infusion): below 10% | adverse reaction: chest pain or chest discomfort (patients; adenosine infusion): 40% | adverse reaction: dyspnoea (patients; adenosine infusion): 28% | adverse reaction: gastrointestinal discomfort (patients; adenosine infusion): 13% | adverse reaction: headache (patients; adenosine infusion): 18% | adverse reaction: throat or neck or jaw discomfort (patients; adenosine infusion): 15% | time to near-maximal vasodilatation, on average (coronary hyperaemia; infusion): 60 s

Nc1nc(N/N=C/C2CCCCC2)nc2c1ncn2[C@@H]1O[C@H](CO)[C@@H](O)[C@H]1O [binodenoson]
duration of action (coronary hyperaemia; in vivo): 10 ± 6 min
